Data as given in patent US20140135310A1, “SULPHONAMIDE DERIVATIVES OF ALICYCLIC AMINES FOR THE TREATMENT OF CENTRAL NERVOUS SYSTEM DISEASES” (Adamed Sp. z o.o., priority 2011, published 2014).

Key:
[1] = target: dopaminergic receptors D2 (Homo sapiens, UniProt P14416); test: Radioligand binding assay, dopaminergic D2 receptors; settings: for inhibition at 1 µM / D2 [%]: binding assay, test compound 1×10^−6 M; for Ki: read-out: Inhibition constants Ki for D2 receptors, D2
How it was run: (§1)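 Competition radioligand binding at human D2, D3 and D4.4 receptors, detected by scintillation counting; nonspecific binding defined with excess unlabelled ligand. Results as percent inhibition of control specific binding; IC50 by Hill-equation nonlinear regression; Ki via Cheng-Prusoff, with radioligand KD from Scatchard plot.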

[2] = target: dopaminergic receptors D3 (Homo sapiens, UniProt P35462); test: Radioligand binding assay, dopaminergic D3 receptors; settings: test compound 1×10^−6 M
dopaminergic receptors D3, sequence (P35462 whole entry): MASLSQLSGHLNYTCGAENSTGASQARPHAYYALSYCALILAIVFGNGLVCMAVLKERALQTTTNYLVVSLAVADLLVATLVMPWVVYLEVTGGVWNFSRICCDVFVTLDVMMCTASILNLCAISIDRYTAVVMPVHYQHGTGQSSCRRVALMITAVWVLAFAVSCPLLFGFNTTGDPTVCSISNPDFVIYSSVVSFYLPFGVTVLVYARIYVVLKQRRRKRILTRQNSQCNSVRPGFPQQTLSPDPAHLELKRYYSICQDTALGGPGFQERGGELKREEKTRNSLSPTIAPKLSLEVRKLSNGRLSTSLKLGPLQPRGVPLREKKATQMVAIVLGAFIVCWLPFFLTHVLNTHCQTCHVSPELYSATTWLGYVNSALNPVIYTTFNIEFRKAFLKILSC
How it was run: as §1

[3] = target: T1, 5-HT1A receptor (rat hippocampus) (Rattus norvegicus, UniProt P19327); test: Radioligand binding assay, serotoninergic 5-HT1A receptors; settings: binding assay result in %, Table 5a
T1 construct: hippocampus; from tissue; host or cells: rat hippocampus
T1 sequence (P19327 1-422): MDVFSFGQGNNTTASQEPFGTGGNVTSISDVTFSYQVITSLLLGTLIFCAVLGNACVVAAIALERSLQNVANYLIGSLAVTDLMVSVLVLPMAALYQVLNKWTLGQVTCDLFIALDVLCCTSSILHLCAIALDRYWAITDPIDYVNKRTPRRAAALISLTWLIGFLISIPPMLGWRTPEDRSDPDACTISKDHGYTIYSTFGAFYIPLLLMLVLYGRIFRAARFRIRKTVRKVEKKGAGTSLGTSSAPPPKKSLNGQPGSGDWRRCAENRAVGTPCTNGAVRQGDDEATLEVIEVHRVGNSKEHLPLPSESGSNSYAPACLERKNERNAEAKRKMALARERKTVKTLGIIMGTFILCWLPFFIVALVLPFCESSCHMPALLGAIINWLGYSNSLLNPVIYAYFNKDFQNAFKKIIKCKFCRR

5-HT2A receptor = target: T2, 5-HT2A receptor (Homo sapiens, UniProt P28223); test: Radioligand binding assay, serotoninergic 5-HT2A receptors; settings: for inhibition at 1 µM / 5-HT2A [%]: binding assay result in %, Table 5a; for Ki: read-out: Inhibition constants Ki, 5-HT2A
T2 construct: purchased PerkinElmer
T2 sequence (P28223 whole entry): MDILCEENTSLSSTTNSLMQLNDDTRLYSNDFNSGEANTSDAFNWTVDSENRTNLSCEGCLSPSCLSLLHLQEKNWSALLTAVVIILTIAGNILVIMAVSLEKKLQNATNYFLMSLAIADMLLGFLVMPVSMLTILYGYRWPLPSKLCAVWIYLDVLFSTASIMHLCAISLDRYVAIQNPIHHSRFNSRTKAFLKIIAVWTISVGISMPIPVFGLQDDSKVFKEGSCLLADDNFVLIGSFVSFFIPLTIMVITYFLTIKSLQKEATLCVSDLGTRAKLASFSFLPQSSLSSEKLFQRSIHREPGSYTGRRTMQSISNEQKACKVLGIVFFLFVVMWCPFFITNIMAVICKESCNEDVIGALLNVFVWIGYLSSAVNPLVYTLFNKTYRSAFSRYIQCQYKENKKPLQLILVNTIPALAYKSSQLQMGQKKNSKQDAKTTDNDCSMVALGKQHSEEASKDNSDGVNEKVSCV
How it was run: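 Radioligand competition binding with scintillation counting; nonspecific binding defined by excess unlabelled ligand. Data as percent inhibition of control specific binding. IC50 by Hill-equation fit of competition curves; Ki by Cheng-Prusoff, with radioligand Kd from Scatchard plot.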

5-HT2C receptor = target: T3, 5-HT2C receptor (Homo sapiens, UniProt P28335); test: Radioligand binding assay, serotoninergic 5-HT2C receptors; settings: test compound 1×10^−6 M
T3 construct: expressed in transfected cells; host or cells: HEK-293 cells
T3 sequence (P28335 33-458): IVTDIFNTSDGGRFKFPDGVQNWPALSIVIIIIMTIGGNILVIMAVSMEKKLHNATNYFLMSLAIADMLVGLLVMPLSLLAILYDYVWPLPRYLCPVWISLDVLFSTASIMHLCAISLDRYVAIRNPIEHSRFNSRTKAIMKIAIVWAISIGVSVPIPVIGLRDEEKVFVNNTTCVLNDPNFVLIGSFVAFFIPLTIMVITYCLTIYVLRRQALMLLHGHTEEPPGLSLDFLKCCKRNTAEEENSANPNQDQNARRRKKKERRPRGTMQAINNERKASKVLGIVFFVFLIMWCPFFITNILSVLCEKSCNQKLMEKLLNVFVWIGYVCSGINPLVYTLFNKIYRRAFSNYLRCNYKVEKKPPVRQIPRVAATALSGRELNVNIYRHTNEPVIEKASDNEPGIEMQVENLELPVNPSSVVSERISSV
Description: (§2) The specific ligand binding to the receptors is defined as the difference between the total binding and the non-specific binding determined in the presence of the excess of unlabelled ligand.
(§3) The results are expressed as a percent of control specific binding ((measured specific binding/control specific binding)×100) and as a percent inhibition of control specific binding (100−((measured specific binding/control specific binding)×100)) obtained in the presence of the test compounds. The specific ligand binding to the receptors is defined as the difference between the total binding and the nonspecific binding determined in the presence of an excess of unlabelled ligand. Scintillation counting was the method of detection of ligand binding. The IC50 values (concentration causing a half-maximal inhibition of control specific binding) were determined by non-linear regression analysis of the competition curves generated with mean replicate values using Hill equation curve fitting (Y=D+[(A−D)/(1+(C/C50)nH)], where Y=specific binding, D=minimum specific binding, A=maximum specific binding, C=compound concentration, C50=IC50, and nH=slope factor). This analysis was performed using a software developed at Cerep (Hill software) and validated by comparison with data generated by the commercial software SigmaPlot® 4.0 for Windows® (© 1997 by SPSS Inc.). The inhibition constants (Ki) were calculated using the Cheng Prusoff equation (Ki=IC50/(1+(L/KD)), where L=concentration of radioligand in the assay, and KD=affinity of the radioligand for the receptor). A scatchard plot was used to determine the Kd.
Experimental conditions for tests are given in Table 4, and results of tests for representative compounds of the invention are given in Table 5a and 5b (receptors 5-HT1A, 5-HT2A, 5-HT6 and 5-HT7) and in Table 6 (receptors 5-HT2C).

[4] = system: α1 adrenergic receptors (rat cerebral cortex); test: Radioligand binding assay, adrenergic α1 receptors; settings: test compound 1×10^−6 M
How it was run: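 Values derive from radioligand displacement, with non-specific binding defined by excess cold ligand and detection by scintillation. Hill-fit IC50s were converted to Ki via Cheng-Prusoff using Scatchard-derived Kd; percent inhibition of control specific binding also reported.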

M3 muscarinic receptors = target: T4, M3 muscarinic receptors (Homo sapiens, UniProt P20309); test: Radioligand binding assay, muscarinic M3 receptors; settings: test compound 1×10^−6 M
T4 construct: expressed in transfected cells; host or cells: CHO cells
T4 sequence (P20309 whole entry): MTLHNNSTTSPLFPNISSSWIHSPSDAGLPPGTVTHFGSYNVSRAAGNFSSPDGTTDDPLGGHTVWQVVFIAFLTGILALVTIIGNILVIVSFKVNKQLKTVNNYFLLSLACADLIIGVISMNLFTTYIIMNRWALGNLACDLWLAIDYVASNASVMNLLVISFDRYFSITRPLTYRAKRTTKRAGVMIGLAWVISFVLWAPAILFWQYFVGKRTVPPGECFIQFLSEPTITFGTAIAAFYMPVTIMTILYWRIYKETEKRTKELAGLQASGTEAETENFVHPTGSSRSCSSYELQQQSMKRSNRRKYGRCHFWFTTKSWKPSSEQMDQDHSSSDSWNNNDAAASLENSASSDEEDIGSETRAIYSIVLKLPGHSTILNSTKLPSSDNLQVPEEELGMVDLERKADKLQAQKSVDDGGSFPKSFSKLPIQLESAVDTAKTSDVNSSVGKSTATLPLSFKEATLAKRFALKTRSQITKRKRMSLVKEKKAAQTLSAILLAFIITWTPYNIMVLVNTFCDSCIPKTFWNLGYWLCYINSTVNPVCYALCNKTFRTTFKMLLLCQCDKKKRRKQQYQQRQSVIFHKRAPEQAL
Description: as §2, §3
Experimental conditions for tests are given in Table 10, and results of tests for representative compounds are given in Table 11.

σ receptors = test: Radioligand binding assay, σ receptors; settings: rat cerebral cortex, [3H]DTG 8 nM
Description: as §2
as §3, with “This analysis was performed using a software developed at Cerep (Hill software) and validated by comparison with data generated by the commercial software SigmaPlot® 4.0 for Windows® (© 1997 by SPSS Inc.).” left out

[5] = target: T5, H1 histaminergic receptors (Homo sapiens, UniProt P35367); test: Radioligand binding assay, histaminergic H1 receptors; settings: human recombinant (HEK-293 cells), [3H]pyrilamine 1 nM
T5 construct: expressed in transfected cells; host or cells: HEK-293 cells
T5 sequence (P35367 whole entry): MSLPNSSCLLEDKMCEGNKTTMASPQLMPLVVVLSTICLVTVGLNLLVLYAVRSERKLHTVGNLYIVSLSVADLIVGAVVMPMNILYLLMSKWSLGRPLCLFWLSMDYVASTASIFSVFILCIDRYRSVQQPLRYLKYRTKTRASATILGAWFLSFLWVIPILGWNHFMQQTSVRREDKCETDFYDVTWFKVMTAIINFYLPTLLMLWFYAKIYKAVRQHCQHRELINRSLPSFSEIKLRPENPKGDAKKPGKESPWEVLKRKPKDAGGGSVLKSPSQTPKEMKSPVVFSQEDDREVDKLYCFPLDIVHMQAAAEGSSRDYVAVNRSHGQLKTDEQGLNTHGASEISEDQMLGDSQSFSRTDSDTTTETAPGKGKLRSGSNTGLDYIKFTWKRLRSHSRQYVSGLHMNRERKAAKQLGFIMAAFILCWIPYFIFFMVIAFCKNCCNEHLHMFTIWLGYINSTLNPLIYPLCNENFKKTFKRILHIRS
Description: as §2, §3
Experimental conditions for tests are given in Table 14, and results of tests for representative compounds are presented in Table 15.

dopaminergic receptors D2, sequence (P14416 whole entry): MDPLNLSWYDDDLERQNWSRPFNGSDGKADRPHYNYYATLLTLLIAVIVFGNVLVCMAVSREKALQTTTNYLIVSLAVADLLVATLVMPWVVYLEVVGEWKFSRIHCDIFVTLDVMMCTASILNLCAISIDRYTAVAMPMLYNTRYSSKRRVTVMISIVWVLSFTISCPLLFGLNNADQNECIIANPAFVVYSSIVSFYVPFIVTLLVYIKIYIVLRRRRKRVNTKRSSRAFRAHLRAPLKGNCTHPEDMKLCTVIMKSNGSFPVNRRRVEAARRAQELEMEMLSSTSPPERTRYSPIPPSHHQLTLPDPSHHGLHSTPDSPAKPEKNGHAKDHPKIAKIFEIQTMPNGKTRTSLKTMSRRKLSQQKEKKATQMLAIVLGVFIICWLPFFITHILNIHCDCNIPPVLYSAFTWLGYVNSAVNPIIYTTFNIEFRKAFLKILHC

Compound	inhibition at 1 µM [1] [%]	inhibition at 1 µM [2] [%]	inhibition at 1 µM [3] [%]	inhibition at 1 µM (5-HT2A receptor) [%]	inhibition at 1 µM (5-HT2C receptor) [%]	α1 [%] [4] [%]	inhibition at 1 µM (M3 muscarinic receptors) [%]	σ [%] (σ receptors)	Ki [1] [nM]	Ki (5-HT2A receptor) [nM]	inhibition at 1 µM [5] [%]	D2 [%] [1] [%]	D3 [%] [2] [%]	5-HT1A [%] [3] [%]	5-HT2A [%] (5-HT2A receptor)	M3 [%] (M3 muscarinic receptors)	H1 [%] [5] [%]	5-HT2C [%] (5-HT2C receptor)
O=S(=O)(NCC1CCN(CCCc2noc3cc(F)ccc23)C1)c1cccc2ccccc12 (stereo not shown) [Compound 239, N-[[1-[3-(6-Fluoro-1,2-benzoxazol-3-yl)propyl]pyrrolidin-3-yl]methyl]naphthalene-1-sulphonamide]	96	76	56	98	49	91	23	97	–	–	–	–	–	–	–	–	–	–
Cc1c(S(=O)(=O)NCC2CCN(CCCc3noc4cc(F)ccc34)C2)sc2ccc(Cl)cc12 (stereo not shown) [Compound 238, 5-Chloro-N-[[1-[3-(6-fluoro-1,2-benzoxazol-3-yl)propyl]pyrrolidin-3-yl]methyl]-3-methyl-benzothiophene-2-sulphonamide]	98	95	71	99	–	82	26	95	3.9	3	65	–	–	–	–	–	–	–
O=S(=O)(NC1CCN(CCOc2cccc3ccccc23)C1)c1cccc(O)c1 (stereo not shown) [Compound 115, 3-Hydroksy-N-[1-[2-(1-naphthyloxy)ethyl]pyrrolidin-3-yl]benzenesulphonamide]	–	–	–	–	–	24	–	69	–	–	–	74	97	100	99	13	72	–
O=S(=O)(NC1CN(CCOc2cccc3[nH]ccc23)C1)c1cccc2ccccc12 [Compound 49, N-[1-[2-(1H-Indol-4-yloxy)ethyl]azetidin-3-yl]naphthalene-1-sulphonamide]	99	106	100	82	59	89	11	50	–	–	–	–	–	–	–	–	–	–
O=S(=O)(NC1CN(CCOc2cccc3c2OCCO3)C1)c1cccc2ccccc12 [Compound 94, N-[1-[2-(2,3-Dihydro-1,4-benzodioxan-8-yloxy)ethyl]azetidin-3-yl]-naphthalene-1-sulphonamide]	–	–	–	–	–	87	–	71	–	–	–	102	105	98	99	1	–	91
O=S(=O)(NC1CCN(CCOc2nsc3ccccc23)C1)c1ccc2ccccc2c1 (stereo not shown) [Compound 39, N-[1-[2-(1,2-Benzothiazol-3-yloxy)ethyl]pyrrolidin-3-yl]naphthalene-2-sulphonamide]	86	95	99	99	74	29	19	54	–	–	–	–	–	–	–	–	–	–
Cc1c(S(=O)(=O)N[C@@H]2CCN(CCCc3noc4cc(F)ccc34)C2)sc2ccc(Cl)cc12 [Compound 204, 5-Chloro-N-[(3R)-1-[3-(6-fluoro-1,2-benzoxazol-3-yl)propyl]pyrrolidin-3-yl]-3-methyl-benzothiophene-2-sulphonamide]	98	96	71	–	87	76	17	90	0.4	0.8	–	–	–	–	–	–	–	–
O=S(=O)(NCC1CCN(CCOc2cccc3c2OCCO3)C1)c1cccc(F)c1 (stereo not shown) [Compound 298, N-[[1-[2-(2,3-Dihydro-1,4-benzodioxin-5-yloxy)ethyl]pyrrolidin-3-yl]-methyl]-3-fluoro-benzenesulphonamide]	52	35	97	88	37	77	22	–	–	–	40	–	–	–	–	–	–	–
CC1(C)Cc2cccc(OCCN3CCC(NS(=O)(=O)c4cccc(O)c4)CC3)c2O1 [Compound 109, N-[1-[2-[(2,2-Dimethyl-3H-benzofuran-7-yl)oxy]ethyl]-4-piperidine]-3-hydroxy-benzenesulphonamide]	–	–	–	–	–	44	–	39	–	–	–	92	86	96	95	3	65	–
O=S(=O)(NC1CCN(CCCc2c[nH]c3ccc(F)cc23)C1)c1ccc2ccccc2c1 (stereo not shown) [Compound 80, N-[1-[3-(5-Fluoro-1H-indol-3-yl)propyl]pyrrolidin-3-yl]naphthalene-2-sulphonamide]	96	100	98	100	86	50	2	81	–	–	–	–	–	–	–	–	–	–
O=S(=O)(NCC1CCN(CCOc2cccc3c2OCCO3)C1)c1ccc(C(F)(F)F)cc1 (stereo not shown) [Compound 293, N-[[1-[2-(2,3-Dihydro-1,4-benzodioxin-5-yloxy)ethyl]pyrrolidin-3-yl]methyl]-4-(trifluoromethyl)benzenesulphonamide]	66	60	100	86	50	77	10	–	–	–	38	–	–	–	–	–	–	–
